Test results: ChEMBL document CHEMBL1201862, “PubChem BioAssay data set” (2004)
Active and inactive are the calls of the source.

The compounds below were run against T1, Leucine aminopeptidase (Plasmodium falciparum 3D7, UniProt Q8IL11) (assay: P. falciparum M17LAP inhibitors, primary screen, biochemical, fluorogenic H-Leu-NHMec substrate, 1536-well (AID 1619)). Settings: not given.
T1 sequence (Q8IL11 whole entry): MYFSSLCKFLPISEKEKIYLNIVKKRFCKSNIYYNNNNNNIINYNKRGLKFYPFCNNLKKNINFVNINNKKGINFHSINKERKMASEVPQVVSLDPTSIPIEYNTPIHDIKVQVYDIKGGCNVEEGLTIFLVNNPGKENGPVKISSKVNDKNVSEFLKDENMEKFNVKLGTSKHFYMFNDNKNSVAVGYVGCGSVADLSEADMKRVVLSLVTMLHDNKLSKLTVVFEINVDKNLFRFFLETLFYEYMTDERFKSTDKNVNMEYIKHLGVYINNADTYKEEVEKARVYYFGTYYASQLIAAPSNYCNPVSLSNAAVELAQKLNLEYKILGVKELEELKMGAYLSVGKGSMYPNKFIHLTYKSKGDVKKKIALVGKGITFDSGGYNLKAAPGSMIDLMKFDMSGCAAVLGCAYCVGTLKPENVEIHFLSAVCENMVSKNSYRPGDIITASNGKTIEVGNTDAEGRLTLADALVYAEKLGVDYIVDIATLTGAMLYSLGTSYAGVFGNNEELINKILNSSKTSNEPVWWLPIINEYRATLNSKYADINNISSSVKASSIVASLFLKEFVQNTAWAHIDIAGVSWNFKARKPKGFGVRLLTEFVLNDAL
Format: functional

| SMILES | IC50 |
| --- | --- |
| CC(C)c1c(O)nc(SCC(=O)Nc2ccc3c(c2)CCC3)[nH]c1=O | 8.08 µM (active) |
| Cc1cc(C(=O)CSc2nc[nH]n2)c(C)n1-c1cccc(S(=O)(=O)N2CCOCC2)c1 | 22.8 µM (active) |
| O=C(O)C1CC=CCC1C(=O)NCCc1cccc(Cl)c1 (configuration not stated) | 11.8 µM (active) |
| CCCN1C=CC(=C/C=C(\C#N)C(=O)OCC)C=C1 | 91.5 µM (active) |
| CC1=NNC(=O)C1CCC(=O)N/N=C(\C)c1ccccc1 (configuration not stated) | 36.6 µM (active) |
| CCOC(=O)c1c(NC(=O)C2C3C=CC(CC3)C2C(=O)O)sc(C)c1CC (configuration not stated) | 13.2 µM (active) |
| O=C(O)CCN1C(=O)/C(=C/c2cn(-c3ccccc3)nc2-c2cccs2)SC1=S | 3.05 µM (active) |
| COc1ccc(CC(CC(=O)O)C(=O)Nc2ccc(OC)cc2)cc1 (configuration not stated) | 8.96 µM (active) |

What follows are compounds tested against Glyceraldehyde-3-phosphate dehydrogenase (Homo sapiens, UniProt P04406). Settings: not given.
Sequence of Glyceraldehyde-3-phosphate dehydrogenase (P04406 whole entry): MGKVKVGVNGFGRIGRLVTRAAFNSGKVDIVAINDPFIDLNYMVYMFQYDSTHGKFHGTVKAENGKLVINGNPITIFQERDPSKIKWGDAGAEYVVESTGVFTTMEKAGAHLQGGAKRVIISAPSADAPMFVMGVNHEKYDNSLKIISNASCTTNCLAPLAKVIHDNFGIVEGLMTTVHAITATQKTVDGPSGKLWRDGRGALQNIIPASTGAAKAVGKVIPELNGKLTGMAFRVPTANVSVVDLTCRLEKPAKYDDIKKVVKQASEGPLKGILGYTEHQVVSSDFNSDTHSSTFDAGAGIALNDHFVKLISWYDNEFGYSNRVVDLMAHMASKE

| SMILES | IC50 |
| --- | --- |
| O=C1C(Cl)=C(N2CCN(C/C=C/c3ccccc3)CC2)C(=O)N1c1ccc(Cl)nc1 | > 50 µM (inconclusive) |
| O=C(CSc1ccccn1)Nc1ccc(O)c(C(=O)O)c1 | > 100 µM (not active) |
| O=C(O)CSc1cccc2c(SCC(=O)O)cccc12 | > 100 µM (not active) |

The compounds below were run against T2, Calpain-2 catalytic subunit (Sus scrofa, UniProt P43367) (assay: m-calpain protease blockers, concentration series – biochemical, fluorogenic peptide substrate, dose response (AID 1420)). Settings: not given.
T2 sequence (P43367 whole entry): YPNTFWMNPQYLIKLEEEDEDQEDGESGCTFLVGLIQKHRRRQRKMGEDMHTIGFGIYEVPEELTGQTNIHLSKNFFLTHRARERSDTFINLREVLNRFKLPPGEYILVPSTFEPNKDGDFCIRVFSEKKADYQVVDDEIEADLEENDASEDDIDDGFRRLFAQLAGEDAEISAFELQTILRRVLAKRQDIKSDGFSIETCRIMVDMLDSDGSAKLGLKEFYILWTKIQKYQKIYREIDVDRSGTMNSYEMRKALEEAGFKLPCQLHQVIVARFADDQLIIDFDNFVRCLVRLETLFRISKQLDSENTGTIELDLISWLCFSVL
Format: functional

| SMILES | IC50 |
| --- | --- |
| COc1cc2c(cc1[N+](=O)[O-])n(C(C)C)c(=O)n2C(C)C | > 50 µM (not active) |
| CCOc1ncccc1C(=O)Nc1nnc(C)s1 | > 50 µM (not active) |
| O=C(Nc1cccc(C(F)(F)F)c1)c1cccn(Cc2ccc3c(c2)OC(F)(F)O3)c1=O | > 50 µM (not active) |
| O=C(c1cc([N+](=O)[O-])ccc1N1CCOCC1)N1CCCCC1 | > 50 µM (not active) |
| Cn1nc(C(F)(F)F)c2cc(NC(=O)OCc3ccc(F)cc3)sc21 | 6.72 µM (active) |
| COc1ccccc1NC(=O)C12CC3CC(C1)CC(c1ccc(C)cc1)(C3)C2 | 3.42 µM (not active) |
| CC1(C(=O)NCc2ccc(Cl)c(Cl)c2)Oc2ccccc2NC1=O (configuration not stated) | 5.76 µM (not active) |

These compounds were tested against Induced myeloid leukemia cell differentiation protein Mcl-1 (Homo sapiens, UniProt Q07820). Settings: not given.
Format: functional

Sequence of Induced myeloid leukemia cell differentiation protein Mcl-1 (Q07820 whole entry): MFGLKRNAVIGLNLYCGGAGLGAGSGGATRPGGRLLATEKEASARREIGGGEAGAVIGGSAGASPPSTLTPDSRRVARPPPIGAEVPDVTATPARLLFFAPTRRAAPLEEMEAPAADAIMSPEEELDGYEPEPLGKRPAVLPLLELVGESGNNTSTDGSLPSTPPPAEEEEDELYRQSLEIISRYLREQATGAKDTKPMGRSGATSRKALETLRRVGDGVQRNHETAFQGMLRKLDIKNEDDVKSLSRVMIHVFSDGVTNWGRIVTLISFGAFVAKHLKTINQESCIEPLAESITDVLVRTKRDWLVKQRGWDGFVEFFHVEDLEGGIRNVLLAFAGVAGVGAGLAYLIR

| SMILES | IC50 |
| --- | --- |
| O=C(O)CCN1C(=O)/C(=C/c2cn(-c3ccccc3)nc2-c2cccs2)SC1=S | 3.24 µM (not active) |

These compounds were tested against Eukaryotic translation initiation factor 4E (Mus musculus, UniProt P63073) (assay: blockers of eIF4G binding by eIF4E – biochemical, TR-FRET, dose response (AID 855)). Settings: not given.
Format: functional

Sequence of Eukaryotic translation initiation factor 4E (P63073 whole entry): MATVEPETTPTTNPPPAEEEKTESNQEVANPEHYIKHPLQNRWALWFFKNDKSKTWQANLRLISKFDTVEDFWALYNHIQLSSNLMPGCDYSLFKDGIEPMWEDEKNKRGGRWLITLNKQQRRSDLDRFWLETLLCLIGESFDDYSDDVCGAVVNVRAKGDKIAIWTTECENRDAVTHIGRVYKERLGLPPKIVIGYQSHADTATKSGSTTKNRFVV

| SMILES | IC50 |
| --- | --- |
| O=C(O)CCN1C(=O)/C(=C/c2cn(-c3ccccc3)nc2-c2cccs2)SC1=S | 50 µM (inactive) |

These compounds were tested against Cytochrome P450 2C19 (Homo sapiens, UniProt P33261) (assay: Cytochrome panel assay with activity outcomes. Panel member name: p450-cyp2c19 Compounds with AC50 equal or less than 10 uM are considered active). Settings: read-out: AC50.
Format: functional

Sequence of Cytochrome P450 2C19 (P33261 whole entry): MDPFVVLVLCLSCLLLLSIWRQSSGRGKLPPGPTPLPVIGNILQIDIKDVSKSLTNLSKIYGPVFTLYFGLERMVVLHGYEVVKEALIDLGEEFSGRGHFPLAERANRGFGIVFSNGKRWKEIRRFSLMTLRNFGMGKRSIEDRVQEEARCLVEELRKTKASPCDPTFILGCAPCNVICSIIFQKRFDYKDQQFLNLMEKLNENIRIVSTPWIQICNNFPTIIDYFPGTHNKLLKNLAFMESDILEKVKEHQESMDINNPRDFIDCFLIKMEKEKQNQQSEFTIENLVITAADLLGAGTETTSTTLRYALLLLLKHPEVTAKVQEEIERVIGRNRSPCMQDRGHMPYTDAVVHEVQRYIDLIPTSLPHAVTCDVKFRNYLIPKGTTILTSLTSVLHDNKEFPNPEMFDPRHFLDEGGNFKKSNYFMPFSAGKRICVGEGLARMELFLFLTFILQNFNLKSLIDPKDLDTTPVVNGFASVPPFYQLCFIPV

| SMILES | AC50 |
| --- | --- |
| O=C(Nc1cccc(C(F)(F)F)c1)c1cccn(Cc2ccc3c(c2)OC(F)(F)O3)c1=O | 2.24 µM (inconclusive) |

What follows are compounds tested against Cytochrome P450 3A4 (Homo sapiens, UniProt P08684). Settings: not given.
Sequence of Cytochrome P450 3A4 (P08684 whole entry): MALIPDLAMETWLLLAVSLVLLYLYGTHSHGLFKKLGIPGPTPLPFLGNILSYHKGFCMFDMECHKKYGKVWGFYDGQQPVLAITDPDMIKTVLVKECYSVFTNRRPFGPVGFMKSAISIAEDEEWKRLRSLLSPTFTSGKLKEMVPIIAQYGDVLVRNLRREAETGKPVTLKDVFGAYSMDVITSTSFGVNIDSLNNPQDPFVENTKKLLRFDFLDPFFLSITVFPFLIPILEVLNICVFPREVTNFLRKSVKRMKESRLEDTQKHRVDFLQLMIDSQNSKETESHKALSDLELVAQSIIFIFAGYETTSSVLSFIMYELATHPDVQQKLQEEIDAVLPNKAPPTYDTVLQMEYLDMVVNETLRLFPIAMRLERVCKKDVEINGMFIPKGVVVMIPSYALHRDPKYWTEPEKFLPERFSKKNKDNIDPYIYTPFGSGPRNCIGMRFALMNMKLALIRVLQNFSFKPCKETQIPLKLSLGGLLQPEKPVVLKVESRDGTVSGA

| SMILES | AC50 |
| --- | --- |
| O=C(Nc1cccc(C(F)(F)F)c1)c1cccn(Cc2ccc3c(c2)OC(F)(F)O3)c1=O | 25.1 µM (inconclusive) |
